Experimental findings from patent publication US7432050B2, “Methods and compositions for detecting colon cancers” (Case Western Reserve University, priority 2001, dated 2008) are described below.

The subject of this test is HLTF expression. Kind of test: RT-PCR assay for HLTF expression reactivation after 5-azacytidine treatment. The class given is cell-based, human. The method, then: The cultures were grown and treated as described previously (Veigl, et al., 1998, Proc. Natl. Acad. Sci. USA, 95:8698-8702). The optimal tolerated doses were determined for each treated line, and two doses were used for some lines, ranging from 1 μg/ml to 3 μg/ml.
To establish that methylation was responsible for silencing HLTF gene expression, cell lines with HLTF DNA methylation were treated with 5-azacytidine (5-azaC), a demethylating agent.

“Also recorded” adds a separate entry of the source.

Take `Nc1ncn([C@@H]2O[C@H](CO)[C@@H](O)[C@H]2O)c(=O)n1` [5-azaC, 5-azacytidine]: for the setting “colon cancer cell lines with HLTF DNA methylation (RCA, V457, SW480, V5, V6, V432), 1 μg/ml to 3 μg/ml”, the “reactivation of HLTF expression” value is “reactivates HLTF expression; also recorded: reactivated HLTF expression in all these cell lines”. Moreover, the “change of HLTF expression in control cell lines” value (control cell lines with constitutive HLTF expression and unmethylated HLTF DNA (V429, V503)) was “did not further increase HLTF expression”.
